Experimental data taken from US20240360153A1 (Regeneron Pharmaceuticals, Inc., priority 2023, published 2024).

Assays:
[1] = In vitro microsomal metabolic stability, human liver microsomes; assay type: in vitro ADME; conditions: for Remaining (T = 60 min) / Remaining (T = NCF60 min) / half-life at 1 µM: Human liver microsomes; for Remaining (T = 60 min): with NADPH; for Remaining (T = NCF60 min): without NADPH regenerating system; for Remaining (T = 60 min) / Remaining (T = NCF60 min): 60 min; for CLint scaled at 1 µM / microsomal CLint at 1 µM: human, human liver microsomes; for CLint scaled at 1 µM / microsomal CLint at 1 µM / half-life at 1 µM: pH 7.2; for half-life at 1 µM: 0.5 mg/ml protein, NADPH
Procedure: (§1) Buffers: PBK Buffer: 50 mM potassium phosphate buffer (PPB), pH 7.2, with 3.3 mM Magnesium Chloride.
(§2) TA Intermediate solution: Compound or control (3 μL) diluted from stock solution (10 mM) with 297 μL 90.0% methanol/water. (Conc: 100 μM; 1.0% DMSO, 89.1% MeOH).
(§3) Control cocktail intermediate solution: Each control (3 μL) was diluted with 291 μL 90.0% methanol/water.
(§4) Diluted TA intermediate stock solution and PC control stock were made by transferring 80 μL of 100 μM TA stock solution into new tubes and then adding 720 μL of 1.0% DMSO in 50 mM potassium phosphate buffer (conc. 10 μM; 1.0% DMSO, 8.91% MeOH).
(§5) Preparation of Liver microsomes working solution (1.25×)(final Conc.: 0.5 mg/mL).
(§6) Acetonitrile:methanol (9:1, v/v)(including 200 ng/mL tolbutamide and 200 ng/ml labetalol hydrochloride as internal standards).
(§7) Working solution: Intermediate solution (80 μL) was diluted with 720 μL 1.0% DMSO in 50 mM potassium phosphate buffer (Conc.: 10 μM; 1.0% DMSO, 8.91% MeOH)
(§8) Procedure: Stock solution was added to each of the time point plates. Microsomes solution (360 μL/well), TA/PC (45 μL/well), and NADPH (45 μL/well) min. (Conc: 1.0 μM, 0.10% DMSO, 0.891% MeOH) were added to the incubation plates. To the T60 and NCF60 plate, TA (15 ul/well) and Microsomes (120 ul) were added. To the blank plate, microsome (50 ul/well) with stop solution (150 ul/well) were added. At the end of each time point, 50 ul/well was aliquoted from the incubation plate. The sampling plates were shaken for approximately 10 min. on a shaker and the samples were centrifuged at 4000 rpm for 15 min. Supernatant (120 μL) was transferred for LC/MS/MS.Compounds from Table 3 were incubated at 37° C. with liver microsomes (pooled from multiple donors) at 1 μM in the presence of a NADPH regenerating system at 0.5 mg/ml microsomal protein. Positive controls included testosterone (3A4 substrate), propafenone (2D6) and diclofenac (2C9), which were incubated with microsomes in the presence of an NADPH regenerating system. At time points (0, 5, 10, 20, 30 and 60 minutes), samples were removed and immediately mixed with cold acetonitrile containing the internal standard (IS). Test compounds incubated with microsomes without the NADPH regenerating system for 60 min are also included. A single point for each test condition (n=1) was obtained, and samples were analyzed by LC/MS/MS. Disappearance of the test compound was assessed based on peak area ratios of analyte/IS (no standard curve).

[2] = test system: S6K1 (Thr389) phosphorylation (mTORC1 activity) in FKBP12 knock-out 293T cells; test: Inhibition of S6K1 (Thr389) phosphorylation in FKBP12 knock-out 293T cells (ELISA); assay type: cell-based, human; conditions: for inhibition at 10 µM: Homo sapiens, HEK-293T, 10 μM (highest tested concentration); for selectivity for FKBP12 compared with RAD001 (in words): wild-type versus FKBP12 knock-out cells
Excerpt: Example Generation of FKBP 12 knock-out cells. A CRISPR/Cas9 system was used to deliver ribonucleoprotein complexes containing guide RNA sequences that target FKBP12 (ac[…], location 1369062; ccactactcac[…], location 1369181) in HEK293T cells using Lipofectamine CRISPRMAX transfection reagent (Invitrogen CMAX00008). Cell clones were screened by immunoblotting with anti-FKBP-specific antibody (Novus, NB300-508). Single cells that were deficient for FKBP12 protein were selected and cloned.
(§9) Treatment of wild-type (WT) and FKBP12 knock-out 293T cells with RAD001 (everolimus) and test compounds. WT and FKBP12 knock-out 293T cells were cultured in Dulbecco's modified Eagle's medium (Gibco #11971-025) supplemented with 10% fetal bovine serum (Gibco #26140-079). Cells were plated at a density of 15,000 cells per well in poly-D-Lysine coated 96-well plates (Corning, #354461) and were incubated at 37° C., 5% CO2 for 24 hours until they reached ˜80% confluence. Cells were treated with RAD001 or test compounds reconstituted in dimethyl sulfoxide (DMSO) using a 8-11-point dose range, from 0.001 pM to 10 μM. All treatments were performed in duplicates for 2 hours at 37° C. Cell culture media supplemented with blank dimethyl sulfoxide (DMSO) was used as a negative control for all compounds. Phosphorylated amounts of S6K1 (Thr389) were measured using an ELISA kit (Invitrogen 85-86052-11), following the manufacture's protocol.
(§10) S6K1 is an immediate downstream target of mTORC1 and therefore phosphorylation of S6K1 at Thr389 residue is used to measure mTORC1 activity (PMID: 16968213). Amounts of phosphorylated S6K1 (Thr389) were measured in WT and FKBP12 knock-out 293T cells treated with either RAD001 or Compound 44 (FIGS. 1A and 1B), and Compound 45 (FIGS. 1C and 1D).

[3] = In vitro microsomal metabolic stability, CD-1 mouse liver microsomes; assay type: in vitro ADME; conditions: for half-life at 1 µM: CD-1, pH 7.2, 0.5 mg/ml protein, NADPH; for half-life at 1 µM / Remaining (T = 60 min) / Remaining (T = NCF60 min): Mouse liver microsomes; for Remaining (T = 60 min): with NADPH; for Remaining (T = NCF60 min): without NADPH regenerating system; for Remaining (T = 60 min) / Remaining (T = NCF60 min): 60 min
Procedure: as §1, §2, §3, §4, §5, §6, §7, §8

[4] = test system: S6K1 (Thr389) phosphorylation (mTORC1 activity) in wild-type (WT) 293T cells; test: Inhibition of S6K1 (Thr389) phosphorylation in wild-type 293T cells (ELISA); assay type: cell-based, human; conditions: for IC50: Homo sapiens, HEK-293T, 2 h, wild-type 293T cells, 2 hours treatment; for fold lower potency compared with RAD001 (by IC50) / extent of inhibition of S6K1 (Thr389) phosphorylation: wild-type cells; for extent of inhibition of S6K1 (Thr389) phosphorylation: with increasing concentrations
Procedure: as §9, §10

[5] = CD-1, mouse, mouse liver microsomes, pH 7.2

| Compound | Remaining (T = 60 min) [1] | Remaining (T = NCF60 min) [1] | CLint scaled at 1 µM [1] | microsomal CLint at 1 µM [1] | half-life at 1 µM [1] | inhibition at 10 µM ([2]; FKBP12 knock-out cells) | selectivity for FKBP12 compared with RAD001 (in words) [2] | microsomal CLint at 1 µM [3, 5] | half-life at 1 µM [3] | Remaining (T = 60 min) [3] | Remaining (T = NCF60 min) [3] | IC50 [4] | fold lower potency compared with RAD001 (by IC50) [4] | extent of inhibition of S6K1 (Thr389) phosphorylation [4] | IC50 of inhibition of S6K1 (Thr389) ([2]; FKBP12 knock-out 293T cells) | inhibition of S6K1 (Thr389) phosphorylation in the absence of FKBP12 (in words) ([2]; FKBP12 knock-out cells) | CLint scaled at 1 µM [3, 5] | concentration achieving 20% inhibition of S6K1 (Thr389) phosphorylation ([2]; FKBP12 knock-out cells) |
| --- | --- | --- | --- | --- | --- | --- | --- | --- | --- | --- | --- | --- | --- | --- | --- | --- | --- | --- |
| CO[C@@H]1C[C@H](C[C@@H](C)[C@@H]2CC[C@H](C)/C=C(\C)[C@@H](O)[C@@H](OC)C(=O)[C@H](C)C[C@H](C)/C=C/C=C/C=C(\C)C(Nc3cccc(C)c3)C[C@@H]3CC[C@@H](C)[C@@](O)(O3)C(=O)C(=O)N3CCCCC3C(=O)O2)CC[C@H]1O (stereo partly drawn) [Compound 50, (3S,6S,7E,9R,10R,12R,14S,15E,17E,19E,23S,26R,27R,34aS)-9,27-dihydroxy-3-((R)-1-((1S,3R,4R)-4-hydroxy-3-methoxycyclohexyl)propan-2-yl)-10-methoxy-6,8,12,14,20,26-hexamethyl-21-(m-tolylamino)-5,6,9,10,12,13,14,21,22,23,24,25,26,27,32,33,34,34a-octadecahydro-3H-23,27-epoxypyrido[2,1-c][1]oxa[4]azacyclohentriacontine-1,11,28,29(4H,31H)-tetraone] | 18% | 99% | 54.7 mL/min/kg | 60.8 µL/min/mg | 22.8 min | 12% | selective to FKBP12 | < 9.6 µL/min/mg | > 145 min | 89% | 112% | 5.72 nM | 15 fold | near complete inhibition | – | – | – | – |
| CO[C@@H]1CC(C[C@@H](C)[C@@H]2CC[C@H](C)/C=C(\C)[C@@H](O)[C@@H](OC)C(=O)[C@H](C)C[C@H](C)/C=C/C=C/C=C(\C)C(Nc3cncc(C)n3)CC3CC[C@@H](C)[C@@](O)(O3)C(=O)C(=O)N3CCCC[C@H]3C(=O)O2)CC[C@H]1O (stereo partly drawn) [Compound 28, (3S,6S,7E,9R,10R,12R,14S,15E,17E,19E,23S,26R,27R,34aS)-9,27-dihydroxy-3-((R)-1-((1S,3R,4R)-4-hydroxy-3-methoxycyclohexyl)propan-2-yl)-10-methoxy-6,8,12,14,20,26-hexamethyl-21-((6-methylpyrazin-2-yl)amino)-5,6,9,10,12,13,14,21,22,23,24,25,26,27,32,33,34,34a-octadecahydro-3H-23,27-epoxypyrido[2,1-c][1]oxa[4]azacyclohentriacontine-1,11,28,29(4H,31H)-tetraone] | 19.40% | 84.00% | 47.5 mL/min/kg | 52.8 µL/min/mg | 26.3 min | – | not greater compared with RAD001 | 16.6 µL/min/mg | 83.5 min | 59.40% | 106% | 3 nM | – | complete inhibition | not measurable/detectable | behaved in a similar fashion to RAD001 | 65.7 mL/min/kg | – |
| CO[C@@H]1C[C@H](C[C@@H](C)[C@@H]2CC[C@H](C)/C=C(\C)[C@@H](O)[C@@H](OC)C(=O)[C@H](C)C[C@H](C)/C=C/C=C/C=C(\C)C(NS(=O)(=O)c3ccccc3)C[C@@H]3CC[C@@H](C)[C@@](O)(O3)C(=O)C(=O)N3CCCC[C@H]3C(=O)O2)CC[C@H]1O (some centres unmarked) [Compound 16] | – | – | – | – | – | ~70% | – | – | – | – | – | – | ~28 fold | complete inhibition | – | comparable to that of RAD001 | – | – |
| COC1C(=O)[C@H](C)C[C@H](C)/C=C/C=C/C=C(\C)C(N(C)S(=O)(=O)c2ccccc2)C[C@@H]2CC[C@@H](C)[C@@](O)(O2)C(=O)C(=O)N2CCCC[C@H]2C(=O)OC([C@H](C)CC2CC[C@@H](O)C(OC)C2)CC[C@H](C)/C=C(\C)C1O (stereo partly drawn) [Compound 73, N-((3S,6S,7E,9R,10R,12R,14S,15E, 17E,19E,23S,26R,27R,34aS)-9,27-dihydroxy-3-((R)-1-((1S,3R,4R)-4-hydroxy-3-methoxycyclohexyl)propan-2-yl)-10-methoxy-6,8,12,14,20,26-hexamethyl-1,11,28,29-tetraoxo-1,4,5,6,9,10,11,12,13,14,21,22,23,24,25,26,27,28,29,31,32,33,34,34a-tetracosahydro-3H-23,27-epoxypyrido[2,1-c][1]oxa[4]azacyclohentriacontin-21-yl)-N-methylbenzenesulfonamide] | – | – | – | – | – | ~60% | not FKBP12 selective | – | – | – | – | 2.22 nM | 13 fold | near complete inhibition | – | – | – | 2.7 nM |
| CO[C@@H]1C[C@H](C[C@@H](C)[C@@H]2CC[C@H](C)/C=C(\C)[C@@H](O)[C@@H](OC)C(=O)[C@H](C)C[C@H](C)/C=C/C=C/C=C(\C)C(Nc3cccc(C#N)c3)C[C@@H]3CC[C@@H](C)[C@@](O)(O3)C(=O)C(=O)N3CCCCC3C(=O)O2)CC[C@H]1O (stereo partly drawn) [Compound 57, 3-(((3S,6S,7E,9R,10R,12R,14S,15E,17E,19E,23S,26R,27R,34aS)-9,27-dihydroxy-3-((R)-1-((1S,3R,4R)-4-hydroxy-3-methoxycyclohexyl)propan-2-yl)-10-methoxy-6,8,12,14,20,26-hexamethyl-1,11,28,29-tetraoxo-1,4,5,6,9,10,11,12,13,14,21,22,23,24,25,26,27,28,29,31,32,33,34,34a-tetracosahydro-3H-23,27-epoxypyrido[2,1-c][1]oxa[4]azacyclohentriacontin-21-yl)amino)benzonitrile] | – | – | – | – | – | – | relatively not FKBP12 selective | – | – | – | – | 3.68 nM | 44 fold | near complete inhibition | – | inhibited the mTORC1 signaling in a dose dependent manner | – | – |
